# Patent publication US6737383B1, “Herbicidal oxadiazolidines” (priority 1999, dated 2004)
# Experiments:
# [1] = test system: cocklebur; assay: Test B pre/postemergence cocklebur; format: in vivo, Xanthium strumarium
# How it was run: (§1)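 Response is a visual 0-to-10 score relative to untreated plants, where 0 means no effect and 10 means complete control, taken twelve to sixteen days after application. Treatments went onto soil at planting and onto foliage of 1- to 4-leaf plants, using a surfactant-containing non-phytotoxic solvent.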
# [2] = test system: corn; assay: Test B pre/postemergence corn; format: in vivo, Zea mays
# How it was run: as §1
# [3] = test system: smallflower flatsedge; assay: Test B flood test smallflower flatsedge; format: in vivo, Cyperus difformis
# How it was run: (§2)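 Plants were grown to the 2-leaf stage before treatment with test chemical, then held in a greenhouse for twelve to sixteen days. Injury was visually rated against untreated controls on a 0–10 scale, where 0 is no effect and 10 is complete control.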
# [4] = test system: surinam grass; assay: Test B pre/postemergence surinam grass; format: in vivo, Brachiaria decumbens
# How it was run: as §1
# [5] = test system: bedstraw; assay: Test B pre/postemergence bedstraw; format: in vivo, Galium aparine
# How it was run: as §1
# [6] = test system: soybean; assay: Test B pre/postemergence soybean; format: in vivo, Glycine max
# How it was run: as §1
# [7] = test system: duck salad; assay: Test B flood test duck salad; format: in vivo, Heteranthera limosa
# How it was run: as §2
# [8] = test system: morningglory; assay: Test B pre/postemergence morningglory; format: in vivo, Ipomoea hederacea
# How it was run: as §1
# [9] = test system: rape; assay: Test B pre/postemergence rape; format: in vivo, Brassica napus
# How it was run: as §1
# [10] = test system: velvetleaf; assay: Test B pre/postemergence velvetleaf; format: in vivo, Abutilon theophrasti
# How it was run: as §1
# [11] = test system: bamyardgrass; assay: Test B flood test barnyardgrass; format: in vivo, Echinochloa crus-galli
# How it was run: as §2
# [12] = test system: wild oat; assay: Test B pre/postemergence wild oat; format: in vivo, Avena fatua
# How it was run: as §1
# [13] = test system: crabgrass; assay: Test B pre/postemergence crabgrass; format: in vivo, Digitaria sanguinalis
# How it was run: as §1
# [14] = test system: rice; assay: Test B flood test rice; format: in vivo, Oryza sativa
# How it was run: as §2
# [15] = test system: sugar beet; assay: Test B pre/postemergence sugar beet; format: in vivo, Beta vulgaris
# How it was run: as §1
# [16] = test system: pigweed; assay: Test B pre/postemergence pigweed; format: in vivo, Amaranthus retroflexus
# How it was run: as §1
# [17] = Preemergence, Rate 62 g/ha, scale of 0 to 10 where 0 is no effect and 10 is complete control
# [18] = Preemergence, Rate 250 g/ha, scale of 0 to 10 where 0 is no effect and 10 is complete control
# [19] = Preemergence, Rate 500 g/ha, scale of 0 to 10 where 0 is no effect and 10 is complete control
# [20] = Rate 62 g/ha, Postemergence, scale of 0 to 10 where 0 is no effect and 10 is complete control
# [21] = Rate 125 g/ha, Postemergence, scale 0 to 10
# [22] = Rate 500 g/ha, Postemergence, scale 0 to 10, 0 no effect, 10 complete control
# [23] = Rate 125 g/ha, Preemergence, scale of 0 to 10 where 0 is no effect and 10 is complete control
# [24] = Rate 62 g/ha, headed Pre-emergence (flood test species), scale 0 to 10 (0 no effect, 10 complete control)
# [25] = Rate 125 g/ha, Pre-emergence, flood test species, scale 0 to 10 where 0 is no effect and 10 is complete control
# [26] = Rate 250 g/ha, Pre-emergence, flood-test species, scale 0 to 10, 0 is no effect, 10 is complete control
# [27] = Rate 500 g/ha, Pre-emergence, flood test species, scale 0 to 10 (0 no effect, 10 complete control)
smiles,measurement,setting,value
CC(C)N(C(=O)n1oc(=O)n(C2CC2)c1=O)c1ccc(F)cc1 [Compound 242],Cocklebur plant response rating,[1]; [17],2
same,Cocklebur plant response rating,[1]; [18],2
same,"Plant response rating, Cocklebur",[1]; [19],3
same,Cocklebur plant response rating,[1]; [20],5
same,Cocklebur plant response rating,[1]; [21],5
same,"Plant response rating (0 to 10; 0 is no effect, 10 is complete control), Cocklebur","[1]; Rate 250 g/ha, Postemergence",7
same,Cocklebur plant response rating,[1]; [22],7
same,Corn plant response rating,[2]; [17],0
same,Corn plant response rating,[2]; [18],6
same,"Plant response rating, Corn",[2]; [19],9
same,Corn plant response rating,[2]; [20],0
same,Corn plant response rating,[2]; [23],0
same,"Plant response rating (0 to 10; 0 is no effect, 10 is complete control), Corn","[2]; Rate 250 g/ha, Postemergence",0
same,Corn plant response rating,[2]; [22],6
same,S. Flatsedge plant response rating,[3]; [24],0
same,S. Flatsedge plant response rating,[3]; [25],0
same,S. Flatsedge plant response rating,[3]; [26],0
same,S. Flatsedge plant response rating,[3]; [27],0
same,B. signalgrass plant response rating,[4]; [17],6
same,B. signalgrass plant response rating,[4]; [18],9
same,"Plant response rating, B. signalgrass",[4]; [19],10
same,B. signalgrass plant response rating,[4]; [20],1
same,B. signalgrass plant response rating,"[4]; Rate 125 g/ha, Postemergence, scale 0 (no effect) to 10 (complete control)",8
same,B. signalgrass plant response rating,[4]; [23],9
same,"Plant response rating (0 to 10; 0 is no effect, 10 is complete control), B. signalgrass","[4]; Rate 250 g/ha, Postemergence",8
same,B. signalgrass plant response rating,[4]; [22],9
same,Bedstraw plant response rating,[5]; [17],0
same,Bedstraw plant response rating,[5]; [18],9
same,"Plant response rating, Bedstraw",[5]; [19],10
same,Bedstraw plant response rating,[5]; [20],2
same,Bedstraw plant response rating,[5]; [21],5
same,Bedstraw plant response rating,[5]; [23],7
same,"Plant response rating (0 to 10; 0 is no effect, 10 is complete control), Bedstraw","[5]; Rate 250 g/ha, Postemergence",7
same,Bedstraw plant response rating,[5]; [22],8
same,Soybean plant response rating,[6]; [17],0
same,Soybean plant response rating,[6]; [18],6
same,"Plant response rating, Soybean",[6]; [19],7
same,Soybean plant response rating,[6]; [20],4
same,Soybean plant response rating,[6]; [23],2
same,Soybean plant response rating,[6]; [22],6
same,Ducksalad plant response rating,[7]; [24],0
same,Ducksalad plant response rating,[7]; [25],0
same,Ducksalad plant response rating,[7]; [26],0
same,Ducksalad plant response rating,[7]; [27],0
same,Morningglory plant response rating,[8]; [17],2
same,Morningglory plant response rating,[8]; [18],5
same,"Plant response rating, Morningglory",[8]; [19],10
same,Morningglory plant response rating,[8]; [20],0
same,Morningglory plant response rating,[8]; [23],2
same,"Plant response rating (0 to 10; 0 is no effect, 10 is complete control), Morningglory","[8]; Rate 250 g/ha, Postemergence",7
same,Morningglory plant response rating,[8]; [22],8
same,Rape plant response rating,[9]; [17],0
same,Rape plant response rating,[9]; [18],10
same,"Plant response rating, Rape",[9]; [19],10
same,Rape plant response rating,[9]; [20],0
same,Rape plant response rating,[9]; [23],6
same,"Plant response rating (0 to 10; 0 is no effect, 10 is complete control), Rape","[9]; Rate 250 g/ha, Postemergence",4
same,Rape plant response rating,[9]; [22],8
same,Velvetleaf plant response rating,[10]; [17],6
same,Velvetleaf plant response rating,[10]; [18],8
same,"Plant response rating, Velvetleaf",[10]; [19],10
same,Velvetleaf plant response rating,[10]; [20],3
same,Velvetleaf plant response rating,[10]; [23],8
same,Velvetleaf plant response rating,[10]; [22],7
same,Barnyardgrass plant response rating,[11]; [24],0
same,Barnyardgrass plant response rating,[11]; [25],0
same,Barnyardgrass plant response rating,[11]; [26],0
same,Barnyardgrass plant response rating,[11]; [27],0
same,Wild oats plant response rating,[12]; [17],7
same,Wild oats plant response rating,[12]; [18],9
same,"Plant response rating, Wild oats",[12]; [19],10
same,Wild oats plant response rating,[12]; [20],0
same,Wild oats plant response rating,[12]; [23],9
same,Wild oats plant response rating,[12]; [22],8
same,Crabgrass plant response rating,[13]; [17],9
same,Crabgrass plant response rating,[13]; [18],10
same,"Plant response rating, Crabgrass",[13]; [19],10
same,Crabgrass plant response rating,[13]; [20],8
same,Crabgrass plant response rating,[13]; [23],10
same,"Plant response rating (0 to 10; 0 is no effect, 10 is complete control), Crabgrass","[13]; Rate 250 g/ha, Postemergence",9
same,Crabgrass plant response rating,[13]; [22],9
same,Rice plant response rating,[14]; [24],0
same,Rice plant response rating,[14]; [25],0
same,Rice plant response rating,[14]; [26],0
same,Rice plant response rating,[14]; [27],0
same,Sugarbeets plant response rating,[15]; [17],3
same,"Plant response rating, Sugarbeets",[15]; [19],8
same,Sugarbeets plant response rating,[15]; [20],0
same,Sugarbeets plant response rating,[15]; [23],7
same,Sugarbeets plant response rating,[15]; [22],8
same,Redroot pigweed plant response rating,[16]; [17],9
same,Redroot pigweed plant response rating,[16]; [18],10
same,"Plant response rating, Redroot pigweed",[16]; [19],10
same,Redroot pigweed plant response rating,[16]; [20],0
same,Redroot pigweed plant response rating,[16]; [23],10
same,"Plant response rating (0 to 10; 0 is no effect, 10 is complete control), Redroot pigweed","[16]; Rate 250 g/ha, Postemergence",4
same,Redroot pigweed plant response rating,[16]; [22],8
